According to ChEMBL document CHEMBL1136071, “Synthesis and biological evaluation of hydroxamate-Based inhibitors of glutamate carboxypeptidase II” (Bioorg Med Chem Lett, 2003):

What follows are compounds tested against Bacterial leucyl aminopeptidase (Vibrio proteolyticus, UniProt Q01693) (assay: Inhibition of metalloprotease from family M28, Aeromonas proteolytica aminopeptidase).
Chain of Bacterial leucyl aminopeptidase (Q01693 whole entry): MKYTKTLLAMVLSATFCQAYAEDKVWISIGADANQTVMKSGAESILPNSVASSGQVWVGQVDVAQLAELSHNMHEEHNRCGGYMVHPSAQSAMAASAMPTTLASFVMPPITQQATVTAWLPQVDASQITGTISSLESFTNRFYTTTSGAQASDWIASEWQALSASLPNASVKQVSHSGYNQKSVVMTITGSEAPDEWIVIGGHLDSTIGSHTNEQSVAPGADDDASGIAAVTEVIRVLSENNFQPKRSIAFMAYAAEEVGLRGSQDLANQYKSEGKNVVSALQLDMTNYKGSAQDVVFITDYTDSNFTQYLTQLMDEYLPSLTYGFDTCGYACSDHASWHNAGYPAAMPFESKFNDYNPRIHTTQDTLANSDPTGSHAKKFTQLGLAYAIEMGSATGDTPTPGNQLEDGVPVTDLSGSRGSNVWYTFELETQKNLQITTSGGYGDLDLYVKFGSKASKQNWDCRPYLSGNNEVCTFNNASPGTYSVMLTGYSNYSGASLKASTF

Ki [µM]	SMILES
0.35	CC(C)C[C@H](N)C(=O)NO
0.002	CC(C)C[C@@H](N)C(=O)NO

What follows are compounds tested against Glutamate carboxypeptidase 2 (Homo sapiens, UniProt Q04609) (assay: Inhibition of Glutamate carboxypeptidase II).
Chain of Glutamate carboxypeptidase 2 (Q04609 whole entry): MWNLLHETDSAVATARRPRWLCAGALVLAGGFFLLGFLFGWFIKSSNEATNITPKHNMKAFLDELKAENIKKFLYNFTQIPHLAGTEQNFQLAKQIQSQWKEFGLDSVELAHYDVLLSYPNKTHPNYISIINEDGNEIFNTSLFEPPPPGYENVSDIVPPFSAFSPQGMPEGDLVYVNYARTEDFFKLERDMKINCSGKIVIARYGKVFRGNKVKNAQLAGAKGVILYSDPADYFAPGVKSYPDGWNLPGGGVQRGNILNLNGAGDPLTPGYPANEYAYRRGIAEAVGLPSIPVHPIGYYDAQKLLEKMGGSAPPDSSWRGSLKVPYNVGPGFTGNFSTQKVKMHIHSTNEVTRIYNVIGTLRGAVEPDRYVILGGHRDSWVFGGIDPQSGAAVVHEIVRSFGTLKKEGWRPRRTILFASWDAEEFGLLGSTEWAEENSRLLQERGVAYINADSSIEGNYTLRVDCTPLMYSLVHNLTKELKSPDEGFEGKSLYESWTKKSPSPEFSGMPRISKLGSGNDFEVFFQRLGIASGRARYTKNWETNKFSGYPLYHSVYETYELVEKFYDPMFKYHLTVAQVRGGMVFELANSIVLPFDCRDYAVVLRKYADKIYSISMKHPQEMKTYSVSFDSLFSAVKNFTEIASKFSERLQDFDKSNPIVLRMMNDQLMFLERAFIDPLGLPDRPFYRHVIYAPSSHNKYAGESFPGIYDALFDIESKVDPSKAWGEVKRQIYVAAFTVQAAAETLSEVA

IC50 [µM]	SMILES
> 100	CC(=O)N[C@H](CC(=O)O)C(=O)NO
> 100	N[C@H](CC(=O)NO)C(=O)O
0.94	O=C(O)CCC(CCCC(=O)NO)C(=O)O (stereo not drawn)
0.22	O=C(O)CCC(CC(=O)NO)C(=O)O (stereo not drawn)

Further lines, the compound ahead of its results:

SMILES	IC50 [µM]
O=C(O)CCC(=O)NO	43
O=C(O)CCC(CCC(=O)NO)C(=O)O (stereo not drawn)	1.2
N[C@@H](CC(=O)NO)C(=O)O	> 100
O=C(O)CCC(CP(=O)(O)Cc1c(F)c(F)c(F)c(F)c1F)C(=O)O (stereo not drawn)	0.082
CC(=O)N[C@@H](CC(=O)O)C(=O)NO	> 100
O=C(O)CCC(CC(=O)O)C(=O)O (stereo not drawn)	20
N[C@@H](CCC(=O)NO)C(=O)O [GLUTAMINE HYDROXAMATE]	> 100
